In patent US8466162B2, “5-alkynyl-pyridines” (Boehringer Ingelheim International GmbH, priority 2011, dated 2013):

Key:
[1] = biological target: T1, PI3Kalpha (Homo sapiens, UniProt P42336); experiment: Inhibition of PI3Kalpha-induced PIP-2 phosphorylation (filter-binding assay, 33P-ATP); format: biochemical; details: PI3 Kinase alpha (p85alpha/His-p110alpha), 1 μM ATP; read-out: IC50 PI3Kα
T1 construct: His (N); made in house; host or cells: SF9 insect cells (baculovirus co-infection)
Experimental: Biological Methods Inhibition of PI3Kalpha-Induced PIP-2 Phosphorylation
See also J. A. Engelman, Nature Reviews Cancer, 2009, 9, 550-562; A. Carnero, Expert Opin. Investig. Drugs, 2009, 18, 1265-1277 and P. Liu et al., Nature Reviews Drug Discovery, 2009, 8, 627-64.
Method Type: Filter-Binding-Assay
Aliquoted in desired amounts and stored at −80° C. […] Assay Procedure
The substrate-containing lipid vesicles are dissolved to a concentration of 0.637 mg lipid blend/ml assay buffer (with BSA, freshly added) in 50 ml Falcon ->keep on ice, followed by ultrasonication (pulse of 15 sec followed by a pause of 10 sec, 4×). Compounds are serially diluted in assay buffer+6% DMSO and 10 μl of each dilution is added per well of a 96-well plate (compounds are tested in duplicates) and mixed with 30 μl of the lipid vesicles containing PDGFR-Peptide (0.5 μM final) and PI3K alpha (25 ng/well final). The mixture is then incubated for 20 minutes at room temperature.
Subsequently, 20 μl of assay buffer containing 3 μM cold ATP and 0.5 μCi/20 μl 33P-ATP are added. The plates are then incubated at room temperature for 120 minutes (shaking with 300 rpm).
The reaction mix is transferred onto filter plates using “filtermate harvester” from Packard: filter plates are rinsed with PBS, then the reaction mix is filtered onto the filter plate, washed 5 times with PBS and are allowed to dry for 30-60 minutes at 50° C. The plate bottom is sealed with Perkin Elmer white adhesive foil and 25 μl/well Microscint0 are added, the top is covered with transparent adhesive foil and the plate is measured with Wallac Trilux 1450 Microbeta Counter.
As positive control serve wells containing vehicle controls (1% DMSO in assay buffer), showing non-inhibited kinase activity (high values). Wells containing assay buffer instead of enzyme can serve as control for background activity (low values).
Calculate IC50 values using the Smiley program (based on GrapPad Prism)

[2] = system: H460 cells; experiment: alamarBlue H460 cell assay (antiproliferative/cytotoxicity); format: cell-based; details: NCI-H460; H460 human lung carcinoma cells
Excerpt: (§1) The H460, MB453, U87, MCF7 and BT474 alamarBlue cell assays provide EC50 values indicative of the antiproliferative or cytotoxic effects of the compounds to respectively the H460 (human non small cell line cancer), MB-453 (breast cancer cell line), U87 (glioblastoma cell line), MCF7 (breast cancer cell line) and BT474 (breast cancer cell line). As known in the field, antiproliferative or cytotoxic effect against this cell lines would be expected to be indicative of activity in treating lung, breast and brain cancers. See R. Marone R et al. Biochim. Biophys. Acta. 2008 January; 1784(1):159-85. S. Yaguchi et al., J. Natl. Cancer Inst. 2006 Apr. 19; 98(8):545-56.
(§2) Method Type: Antiproliferative/Cytotoxicity
(§3) alamarBlue® is designed to provide a rapid and sensitive measure of cell proliferation and cytotoxicity in various human and animal cell lines. The assay is based on the reduction of alamarBlue in the reducing environment of living (metabolically active) cells. In the presence of added cytotoxic or antiproliferative compounds, the innate metabolic activity ceases.
(§4) AlamarBlue is soluble and stable in culture medium. Measurements are made fluorometrically by exciting at 530-560 nm and measuring emission at 590 nm. In reporting percent alamarBlue reduction by monitoring fluorescence, data are expressed as fluorescence emission intensity units as a function of time of incubation.
(§5) 3. Equipment • 96-well plates, flat bottom (Falcon, Cat. No.: 353072) • 96-well plates, U-shaped (Costar, Cat. No.: 3799) • CO2-Incubator • Microplate Reader, Spectramax Plus, Molecular Devices 4. Typical Procedure • Day 0: Seed 3000 BT-474 cells (IMDM/5% FCS, 1% NEAA, 1% Sodiumpyruvat) in 150 μl medium into a 96-well plate, flat bottom (include mediumblank). Incubate plates at 37° C. in a CO2 incubator overnight. • Day 1: Dilute compounds to a concentration 40 μM ->1:3 in medium, 10 dilution steps, in 96-well plates. • Add 50 μl per well of each dilution (total volume per well 200 μl; final conc. of cpds: 10 μM ->1:3). If required, test further dilutions. • All concentrations are tested in duplicates. • Controls: Cells w/o cpd. (+50 μl medium/DMSO). • Cells are incubated with compounds for 5-6 days. • Day 6 or 7: Add 25 μl of alamarBlue solution to each well and incubate for 8 hours at 37° C. Measure fluorescence by exciting at 530-560 nm and measuring emission at 590 nm 5. Evaluation • Subtract average value for medium blank from sample readings • Calculate EC50 using GraphPad Prism (Fifty)

[3] = system: BT474 cells; experiment: alamarBlue BT474 cell assay (antiproliferative/cytotoxicity); format: cell-based; details: BT-474 human breast cancer cell line, 5-6 days incubation
Excerpt: as §1, §2, §3, §4, §5

[4] = system: MCF7 cells; experiment: alamarBlue MCF7 cell assay (antiproliferative/cytotoxicity); format: cell-based; details: MCF7 human breast cancer cell line
Excerpt: as §1, §2, §3, §4, §5

T1 sequence (P27986 whole entry): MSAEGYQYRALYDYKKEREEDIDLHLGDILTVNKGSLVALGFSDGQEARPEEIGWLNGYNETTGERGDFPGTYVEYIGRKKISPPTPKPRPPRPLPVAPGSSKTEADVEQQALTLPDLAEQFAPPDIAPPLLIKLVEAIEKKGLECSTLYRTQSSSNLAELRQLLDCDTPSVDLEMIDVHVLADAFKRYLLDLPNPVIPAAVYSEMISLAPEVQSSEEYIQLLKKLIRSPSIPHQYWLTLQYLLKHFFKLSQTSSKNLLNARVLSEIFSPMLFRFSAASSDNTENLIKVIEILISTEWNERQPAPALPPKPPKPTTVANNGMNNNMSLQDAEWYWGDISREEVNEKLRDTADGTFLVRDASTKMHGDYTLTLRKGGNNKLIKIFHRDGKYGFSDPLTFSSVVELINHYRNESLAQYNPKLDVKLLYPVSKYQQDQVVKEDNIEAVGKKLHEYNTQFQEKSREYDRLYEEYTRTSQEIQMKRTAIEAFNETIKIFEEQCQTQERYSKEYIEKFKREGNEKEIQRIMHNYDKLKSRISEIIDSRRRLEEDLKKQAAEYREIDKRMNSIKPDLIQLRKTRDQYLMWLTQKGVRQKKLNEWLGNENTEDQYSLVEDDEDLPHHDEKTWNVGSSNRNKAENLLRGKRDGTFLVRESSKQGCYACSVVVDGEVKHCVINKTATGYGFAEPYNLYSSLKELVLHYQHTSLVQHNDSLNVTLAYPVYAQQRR
T1 sequence (P42336 whole entry): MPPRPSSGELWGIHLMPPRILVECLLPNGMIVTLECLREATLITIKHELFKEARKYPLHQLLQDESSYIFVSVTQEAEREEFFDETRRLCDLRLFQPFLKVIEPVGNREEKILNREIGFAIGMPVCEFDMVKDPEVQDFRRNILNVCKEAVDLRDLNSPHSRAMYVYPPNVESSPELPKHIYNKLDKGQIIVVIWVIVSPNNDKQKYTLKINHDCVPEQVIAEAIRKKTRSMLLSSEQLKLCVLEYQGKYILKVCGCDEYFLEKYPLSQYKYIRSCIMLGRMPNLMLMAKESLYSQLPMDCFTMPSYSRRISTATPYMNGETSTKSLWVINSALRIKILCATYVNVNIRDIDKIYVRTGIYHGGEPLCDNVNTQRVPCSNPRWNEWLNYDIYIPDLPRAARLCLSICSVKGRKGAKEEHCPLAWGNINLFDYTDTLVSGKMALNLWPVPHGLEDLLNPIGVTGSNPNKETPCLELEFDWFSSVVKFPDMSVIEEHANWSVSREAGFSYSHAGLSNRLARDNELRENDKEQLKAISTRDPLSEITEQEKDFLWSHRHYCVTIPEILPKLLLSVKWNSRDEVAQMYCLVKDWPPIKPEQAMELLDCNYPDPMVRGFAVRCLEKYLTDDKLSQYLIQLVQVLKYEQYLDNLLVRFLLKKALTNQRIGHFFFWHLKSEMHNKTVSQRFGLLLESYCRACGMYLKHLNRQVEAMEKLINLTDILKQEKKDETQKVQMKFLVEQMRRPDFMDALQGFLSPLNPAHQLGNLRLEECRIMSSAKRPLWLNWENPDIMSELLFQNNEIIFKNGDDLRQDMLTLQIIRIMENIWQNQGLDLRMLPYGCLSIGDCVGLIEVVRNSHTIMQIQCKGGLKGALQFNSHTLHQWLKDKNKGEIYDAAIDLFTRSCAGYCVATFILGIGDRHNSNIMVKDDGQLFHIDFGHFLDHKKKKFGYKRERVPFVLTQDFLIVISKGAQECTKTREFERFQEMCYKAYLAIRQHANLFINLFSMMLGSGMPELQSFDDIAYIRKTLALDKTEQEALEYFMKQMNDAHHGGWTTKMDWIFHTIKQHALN

| Compound | IC50 [1] [nM] | EC50 [2] [nM] | EC50 [3] [nM] | EC50 [4] [nM] |
| --- | --- | --- | --- | --- |
| CCc1nc(N)nc(-c2cccnc2)c1C#Cc1cnc(C)c(NS(C)(=O)=O)c1 [Example 12, N-[5-(2-Amino-4-ethyl-6-pyridin-3-yl-pyrimidin-5-ylethynyl)-2-methyl-pyridin-3-yl]-methanesulfonamide] | 2 | 1240 |  |  |
| CCc1nc(N)nc(-c2ccc(C3CC3)nc2)c1C#Cc1cnc(C)c(NS(C)(=O)=O)c1 [Example 13, N-{5-[2-Amino-4-(6-cyclopropyl-pyridin-3-yl)-6-ethyl-pyrimidin-5-ylethynyl]-2-methyl-pyridin-3-yl}-methanesulfonamide] | 0.74 | 141 | 132 | 24 |
| CCc1nc(N)nc(-c2ccc(C)nc2)c1C#Cc1cnc(C)c(NS(C)(=O)=O)c1 [Example 14, N-{5-[2-Amino-4-ethyl-6-(6-methyl-pyridin-3-yl)-pyrimidin-5-ylethynyl]-2-methyl-pyridin-3-yl}-methanesulfonamide] | 1 | 305 | 89 | 16 |
| CCc1nc(N)nc(-c2ccnc(C)c2)c1C#Cc1cnc(C)c(NS(C)(=O)=O)c1 [Example 15, N-{5-[2-Amino-4-ethyl-6-(2-methyl-pyridin-4-yl)-pyrimidin-5-ylethynyl]-2-methyl-pyridin-3-yl}-methanesulfonamide] | 0.95 | 294 | 107 | 40 |
| CCc1nc(N)nc(-c2cccc(F)c2)c1C#Cc1cnc(C)c(NS(C)(=O)=O)c1 [Example 16, N-{5-[2-Amino-4-ethyl-6-(3-fluoro-phenyl)-pyrimidin-5-ylethynyl]-2-methyl-pyridin-3-yl}-methanesulfonamide] | 2 | 337 |  |  |
| CCc1nc(N)nc(-c2ccccc2)c1C#Cc1cnc(C)c(NS(C)(=O)=O)c1 [Example 17, N-[5-(2-Amino-4-ethyl-6-phenyl-pyrimidin-5-ylethynyl)-2-methyl-pyridin-3-yl]-methanesulfonamide] | 2 | 172 |  |  |
| CCc1nc(N)nc(-c2ccc(CN3CCOCC3)cc2)c1C#Cc1cnc(C)c(NS(C)(=O)=O)c1 [Example 18, N-{5-[2-Amino-4-ethyl-6-(4-morpholin-4-ylmethyl-phenyl)-pyrimidin-5-ylethynyl]-2-methyl-pyridin-3-yl}-methanesulfonamide] | 2 |  | 260 | 118 |
| CCc1nc(N)nc(-c2cccc(CN(C)C)c2)c1C#Cc1cnc(C)c(NS(C)(=O)=O)c1 [Example 19, N-{5-[2-Amino-4-(3-dimethylaminomethyl-phenyl)-6-ethyl-pyrimidin-5-ylethynyl]-2-methyl-pyridin-3-yl}-methanesulfonamide] | 6 |  | 806 | 313 |
| CCS(=O)(=O)Nc1cc(C#Cc2c(C)nc(N)nc2-c2ccnc(C)c2)cnc1C [Example 20, Ethanesulfonic acid {5-[2-amino-4-methyl-6-(2-methyl-pyridin-4-yl)-pyrimidin-5-ylethynyl]-2-methyl-pyridin-3-yl}-amide] | 14 | 1820 |  |  |
| CCc1ncnc(-c2ccc(OC)c(OC)c2C)c1C#Cc1cnc(C)c(NS(C)(=O)=O)c1 [Example 24, N-{5-[4-(3,4-Dimethoxy-2-methyl-phenyl)-6-ethyl-pyrimidin-5-ylethynyl]-2-methyl-pyridin-3-yl}-methanesulfonamide] | 28 |  |  |  |
| CCc1nc(N)nc(-c2cccc(CN(C)C)c2)c1C#Cc1cnc(C)c(NS(=O)(=O)c2ccc(F)cc2F)c1 [Example 35, N-{5-[2-Amino-4-(3-dimethylaminomethyl-phenyl)-6-ethyl-pyrimidin-5-ylethynyl]-2-methyl-pyridin-3-yl}-2,4-difluoro-benzenesulfonamide] | 2 |  |  |  |

Continued, in another order:

| IC50 [1] [nM] | Compound | EC50 [2] [nM] | EC50 [3] [nM] | EC50 [4] [nM] |
| --- | --- | --- | --- | --- |
| 380 | CCc1ncnc(-c2c(C)cccc2C)c1C#Cc1cnc(C)c(NS(C)(=O)=O)c1 [Example 58, N-{5-[4-(2,6-Dimethyl-phenyl)-6-ethyl-pyrimidin-5-ylethynyl]-2-methyl-pyridin-3-yl}-methanesulfonamide] |  |  |  |
| 37 | CCc1ncnc(-c2ccccc2C)c1C#Cc1cnc(C)c(NS(C)(=O)=O)c1 [Example 60, N-[5-(4-Ethyl-6-o-tolyl-pyrimidin-5-ylethynyl)-2-methyl-pyridin-3-yl}-methanesulfonamide] |  |  |  |
| 34 | CCc1ncnc(-c2cc(C#N)ccc2F)c1C#Cc1cnc(C)c(NS(C)(=O)=O)c1 [Example 66, N-{5-[4-(5-Cyano-2-fluoro-phenyl)-6-ethyl-pyrimidin-5-ylethynyl]-2-methyl-pyridin-3-yl}-methanesulfonamide] |  |  |  |
| 46 | CCc1ncnc(-c2cc(C(F)(F)F)ccc2F)c1C#Cc1cnc(C)c(NS(C)(=O)=O)c1 [Example 67, N-{5-[4-Ethyl-6-(2-fluoro-5-trifluoromethyl-phenyl)-pyrimidin-5-ylethynyl]-2-methyl-pyridin-3-yl}-methanesulfonamide] |  |  |  |
| 136 | CCc1ncnc(-c2cc(C(F)(F)F)ccc2OC)c1C#Cc1cnc(C)c(NS(C)(=O)=O)c1 [Example 68, N-{5-[4-Ethyl-6-(2-methoxy-5-trifluoromethyl-phenyl)-pyrimidin-5-ylethynyl]-2-methyl-pyridin-3-yl}-methanesulfonamide] |  |  |  |
| 150 | CCc1ncnc(-c2cc(CN)ccc2F)c1C#Cc1cnc(C)c(NS(C)(=O)=O)c1 [Example 77, N-{5-[4-(5-Aminomethyl-2-fluoro-phenyl)-6-ethyl-pyrimidin-5-ylethynyl]-2-methyl-pyridin-3-yl}-methanesulfonamide] |  |  |  |
| 44 | CCc1ncnc(-c2cccc(CN)c2F)c1C#Cc1cnc(C)c(NS(C)(=O)=O)c1 [Example 79, N-{5-[4-(3-Aminomethyl-2-fluoro-phenyl)-6-ethyl-pyrimidin-5-ylethynyl]-2-methyl-pyridin-3-yl}-methanesulfonamide] |  |  |  |
| 43 | CCc1ncnc(-c2ccc(OC)c(OC)c2OC)c1C#Cc1cnc(C)c(NS(C)(=O)=O)c1 [Example 80, N-{5-[4-Ethyl-6-(2,3,4-trimethoxy-phenyl)-pyrimidin-5-ylethynyl]-2-methyl-pyridin-3-yl}-methanesulfonamide] |  |  |  |
| 2 | CCc1ncnc(-c2ccnc(C)c2)c1C#Cc1cnc(C)c(NS(=O)(=O)c2ccc(F)cc2Cl)c1 [Example 90, 2-Chloro-N-{5-[4-ethyl-6-(2-methyl-pyridin-4-yl)-pyrimidin-5-ylethynyl]-2-methyl-pyridin-3-yl}-4-fluoro-benzenesulfonamide] |  |  |  |
| 12 | CCc1ncnc(-c2ccnc(C)c2)c1C#Cc1cnc(C)c(NS(=O)(=O)c2ccc(Br)cc2C)c1 [Example 97, 4-Bromo-N-{5-[4-ethyl-6-(2-methyl-pyridin-4-yl)-pyrimidin-5-ylethynyl]-2-methyl-pyridin-3-yl}-2-methyl-benzenesulfonamide] |  | 1530 |  |
